{"source": "paper PMC9181698", "about": "(International Journal of Molecular Sciences, 2022)", "key": {"[1]": {"target": "T1, ACE2–RBD interaction (wt SARS-CoV-2 spike protein RBD-Fc / His-tagged hACE2) (Severe acute respiratory syndrome coronavirus 2, UniProt P0DTC2)", "T1 construct": "SARS-CoV-2 spike protein RBD-Fc fusion protein; Fc fusion; purchased Sino Biological", "experiment": "SARS-CoV-2 spike protein RBD–hACE2 inhibition assay (ELISA), wt RBD", "assay_type": "biochemical", "details": "individual helices of LCB1"}, "[2]": {"target": "T2, neutrophil elastase (Homo sapiens, UniProt P08246)", "T2 construct": "purchased Abcam", "T2 sequence (P08246 30-267)": "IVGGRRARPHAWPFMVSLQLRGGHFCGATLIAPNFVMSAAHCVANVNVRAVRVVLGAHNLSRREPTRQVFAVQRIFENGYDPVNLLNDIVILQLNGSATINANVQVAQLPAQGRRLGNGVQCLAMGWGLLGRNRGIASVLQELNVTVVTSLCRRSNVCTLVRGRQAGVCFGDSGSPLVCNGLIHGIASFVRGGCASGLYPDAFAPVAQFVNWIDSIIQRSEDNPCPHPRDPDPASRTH", "assay_type": "in vitro ADME", "details": "neutrophil elastase 5.5 µg/mL in Tris buffer 0.1 M + NaCl 0.5 M pH 7.8, enzyme pre-incubated 15 min at 37 °C, peptide 100 µM, 60 min, LC-MS (Figure 4C,D)", "method": "(§1) The enzymes (pepsin, Ph.Eur. grade, Carl Roth GmbH, and neutrophil elastase, 20–22 U/mg, Abcam, respectively) were diluted to 5.5 µg/mL in TFA 10 mM (pepsin) or Tris buffer 0.1 M + NaCl 0.5 M pH 7.8 (neutrophil elastase) and pre-incubated for 15 min at 37 °C. Peptides were added at 100 µM and incubated at 37 °C. A sample of 40 µL was taken after 60 min of incubation and the reaction was stopped by adding 5 µL sodium carbonate solution (1 M, pepsin) and 5 µL TFA (neutrophil elastase), respectively. After 10 min, 60 µL acetonitrile/water 50:50 containing 1% TFA were added, and the resulting solution was analyzed by LC-MS (conditions: Phenomenex Kinetex 2.6 μm C18 100 Å column, 50 × 2.1 mm, flow rate 0.55 mL/min, gradient of acetonitrile in H2O (both containing 0.1% TFA, 20–60% over 20 min))."}, "[3]": {"target": "T3, pepsin (Sus scrofa, UniProt P00791)", "T3 construct": "purchased Carl Roth GmbH", "T3 sequence (P00791 60-385)": "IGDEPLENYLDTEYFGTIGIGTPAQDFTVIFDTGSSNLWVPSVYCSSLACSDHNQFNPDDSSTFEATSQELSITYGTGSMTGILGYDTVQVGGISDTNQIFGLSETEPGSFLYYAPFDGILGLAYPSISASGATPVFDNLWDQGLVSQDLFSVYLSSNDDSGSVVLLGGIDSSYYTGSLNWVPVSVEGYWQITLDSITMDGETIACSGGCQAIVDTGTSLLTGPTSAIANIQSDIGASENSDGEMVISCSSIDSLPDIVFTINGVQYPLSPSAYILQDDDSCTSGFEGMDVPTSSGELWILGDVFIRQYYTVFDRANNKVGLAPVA", "assay_type": "in vitro ADME", "details": "pepsin 5.5 µg/mL in TFA 10 mM, enzyme pre-incubated 15 min at 37 °C, peptide 100 µM, 60 min, LC-MS (Figure 4A,B)", "method": "as §1"}, "[4]": {"test_system": "pepsin", "experiment": "pepsin, Ph.Eur. grade, Carl Roth GmbH, diluted to 5.5 µg/mL in TFA 10 mM", "details": "37 °C, up to 60 min"}, "[5]": {"test_system": "neutrophil elastase", "experiment": "neutrophil elastase, 20–22 U/mg, Abcam, diluted to 5.5 µg/mL in Tris buffer 0.1 M + NaCl 0.5 M pH 7.8", "details": "37 °C, up to 60 min"}}, "note": "Entries after “also recorded” stand apart in the source; their conditions may differ. Residues, ends and D or L forms follow the SMILES beside them."}
{"compound": "CC[C@H](C)[C@H](NC(=O)[C@H](Cc1c[nH]c2ccccc12)NC(=O)[C@H](CCC(=O)O)NC(=O)[C@H](CCCCN)NC(=O)[C@H](CC(=O)O)NC(=O)COCCOCCNC(=O)CCCC[C@@H]1SC[C@@H]2NC(=O)N[C@@H]21)C(=O)N[C@@H](CC(C)C)C(=O)N[C@@H](CCC(N)=O)C(=O)N[C@@H](CCCCN)C(=O)N[C@H](C(=O)N[C@@H](Cc1ccc(O)cc1)C(=O)N[C@@H](CCC(=O)O)C(=O)N[C@H](C(=O)N[C@@H](CCSC)C(=O)N[C@@H](CCCNC(=N)N)C(=O)N[C@@H](CC(C)C)C(=O)N[C@@H](CC(C)C)C(=O)N[C@@H](CC(=O)O)C(=O)N[C@@H](CCC(=O)O)C(=O)N[C@@H](CC(C)C)C(N)=O)[C@@H](C)CC)[C@@H](C)CC", "note": "[LW25.5] (HELM PEPTIDE1{[O=C1N[C@H]2[C@H](CS[C@H]2CCCCC(=O)[*:2])N1].[O=C(COCCOCCN[*:1])[*:2]].D.K.E.W.I.L.Q.K.I.Y.E.I.M.R.L.L.D.E.L.[am]}$$$$V2.0)", "values": [{"measurement": "Inhibitory activity on the ACE2–RBD interaction (in words)", "setting": "[1]", "value": "completely inactive"}]}
{"compound": "CC[C@H](C)[C@H](NC(=O)[C@H](CC(C)C)NC(=O)[C@H](CC(=O)O)NC(=O)[C@H](CO)NC(=O)[C@@H](NC(=O)[C@H](CCCNC(=N)N)NC(=O)[C@H](CCSC)NC(=O)[C@H](CO)NC(=O)[C@H](C)NC(=O)[C@H](CCC(=O)O)NC(=O)[C@H](C)NC(=O)[C@H](Cc1c[nH]cn1)NC(=O)CNC(=O)COCCOCCNC(=O)CCCC[C@@H]1SC[C@@H]2NC(=O)N[C@@H]21)C(C)C)C(=O)N[C@@H](Cc1ccc(O)cc1)C(=O)N[C@@H](CCC(=O)O)C(=O)N[C@@H](Cc1ccccc1)C(=O)N[C@@H](CCSC)C(=O)N[C@@H](CCCCN)C(=O)N[C@@H](CCCCN)C(=O)NCC(N)=O", "note": "[LW25.6] (HELM PEPTIDE1{[O=C1N[C@H]2[C@H](CS[C@H]2CCCCC(=O)[*:2])N1].[O=C(COCCOCCN[*:1])[*:2]].G.H.A.E.A.S.M.R.V.S.D.L.I.Y.E.F.M.K.K.G.[am]}$$$$V2.0)", "values": [{"measurement": "Inhibitory activity on the ACE2–RBD interaction (in words)", "setting": "[1]", "value": "completely inactive"}]}
{"compound": "CC[C@H](C)[C@@H]1NC(=O)[C@H](CC(C)C)NC(=O)[C@H](CC(=O)O)NC(=O)[C@H](CO)NC(=O)[C@H](C(C)C)NC(=O)[C@H](CCCNC(=N)N)NC(=O)[C@H](CCSC)NC(=O)[C@H](CO)NC(=O)[C@H](C)NC(=O)[C@H](CCC(=O)O)NC(=O)[C@H](C)NC(=O)[C@H](Cc2c[nH]cn2)NC(=O)CNC(=O)[C@H](CC(C)C)NC(=O)[C@H](CCC(=O)O)NC(=O)[C@H](CC(=O)O)NC(=O)[C@H](CC(C)C)NC(=O)[C@H](CC(C)C)NC(=O)[C@H](CCCNC(=N)N)NC(=O)[C@H](CCSC)NC(=O)[C@H]([C@@H](C)CC)NC(=O)[C@H](CCC(=O)O)NC(=O)[C@H](Cc2ccc(O)cc2)NC(=O)[C@H]([C@@H](C)CC)NC(=O)[C@H](CCCCN)NC(=O)[C@H](CCC(N)=O)NC(=O)[C@H](CC(C)C)NC(=O)[C@H]([C@@H](C)CC)NC(=O)[C@H](Cc2c[nH]c3ccccc23)NC(=O)[C@H](CCC(=O)O)NC(=O)[C@@H](NC(=O)COCCOCCNC(=O)CCCC[C@@H]2SC[C@@H]3NC(=O)N[C@@H]32)CSSC[C@@H](C(N)=O)NC(=O)[C@H](CCCCN)NC(=O)[C@H](CCCCN)NC(=O)[C@H](CCSC)NC(=O)[C@H](Cc2ccccc2)NC(=O)[C@H](CCC(=O)O)NC(=O)[C@H](Cc2ccc(O)cc2)NC1=O", "note": "[LW25.13]", "values": [{"measurement": "Stability towards neutrophil elastase (in words)", "setting": "[2]", "value": "still largely intact"}, {"measurement": "Susceptibility to proteolytic degradation by pepsin (in words)", "setting": "[3]", "value": "largely stable"}]}
{"compound": "CC[C@H](C)[C@H](NC(=O)[C@H](CC(C)C)NC(=O)[C@H](CC(=O)O)NC(=O)[C@H](CO)NC(=O)[C@@H](NC(=O)[C@H](CCCNC(=N)N)NC(=O)[C@H](CCSC)NC(=O)[C@H](CO)NC(=O)[C@H](C)NC(=O)[C@H](CCC(=O)O)NC(=O)[C@H](C)NC(=O)[C@H](Cc1c[nH]cn1)NC(=O)CNC(=O)[C@H](CC(C)C)NC(=O)[C@H](CCC(=O)O)NC(=O)[C@H](CC(=O)O)NC(=O)[C@H](CC(C)C)NC(=O)[C@H](CC(C)C)NC(=O)[C@H](CCCNC(=N)N)NC(=O)[C@H](CCSC)NC(=O)[C@@H](NC(=O)[C@H](CCC(=O)O)NC(=O)[C@H](Cc1ccc(O)cc1)NC(=O)[C@@H](NC(=O)[C@H](CCCCN)NC(=O)[C@H](CCC(N)=O)NC(=O)[C@H](CC(C)C)NC(=O)[C@@H](NC(=O)[C@H](Cc1c[nH]c2ccccc12)NC(=O)[C@H](CCC(=O)O)NC(=O)[C@H](CCCCN)NC(=O)[C@H](CC(=O)O)NC(=O)COCCOCCNC(=O)CCCC[C@@H]1SC[C@@H]2NC(=O)N[C@@H]21)[C@@H](C)CC)[C@@H](C)CC)[C@@H](C)CC)C(C)C)C(=O)N[C@@H](Cc1ccc(O)cc1)C(=O)N[C@@H](CCC(=O)O)C(=O)N[C@@H](Cc1ccccc1)C(N)=O", "note": "[LW32.4]", "values": [{"measurement": "Stability towards neutrophil elastase (in words)", "setting": "[2]", "value": "rapidly hydrolyzed"}, {"measurement": "Susceptibility to proteolytic degradation by pepsin (in words)", "setting": "[3]", "value": "hydrolyzed only at position L31"}]}
{"compound": "Biotin-Aoa-DKEWILQKIYEIMRLLDELGHAEASMRVSDLIYEF-NH2", "values": [{"measurement": "cleaved bond", "setting": "[4]", "value": "L31-I32, 60 min"}, {"measurement": "cleaved bond", "setting": "[5]", "value": "A-S, 60 min; also recorded: S-M, 60 min"}]}
{"compound": "Biotin-Aoa-[^3 CEWILQKIYEIMRLLDELGHAEASMRVSDLIYEFMKKC]-NH2", "values": [{"measurement": "not cleaved", "setting": "[4]", "value": "largely stable towards pepsin for at least 60 min"}, {"measurement": "not cleaved", "setting": "[5]", "value": "still largely intact after 60 min exposure to the enzyme"}]}
